Experimental findings from patent publication US20260274832A1, “COMPOUNDS AND THEIR USE IN TREATING CANCER” (ASTRAZENECA AB, priority 2023, published 2026) are described below.

For assay [1], the target named is T1, AR (AR-full length) in LNCaP cells (Homo sapiens, UniProt P10275, T878A).
T1 construct: the prostate cancer cell line LNCaP (expressing AR-full length); endogenous in cells; host or cells: LNCaP
Kind of assay: LNCaP Androgen Receptor Imaging Assay (immunofluorescence of endogenous nuclear AR). It counts as cell-based. As to conditions: 24 h incubation; for DC50: concentration giving 50% of maximum degradation of AR per curve fit, single experiment or average of two or more; for Dmax: LNCaP, maximum degradation observed, normalized as % of positive control (prior art AR PROTAC at 3 μM). The method in brief:
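LNCaP cells (12,000/well) received a 12-point compound dose series (0.3% DMSO) for 24 h at 37° C., then were PFA-fixed and stained for AR (AR441) and nuclei (DRAQ5). Nuclear AR was quantified by imaging, normalized to a 3 μM AR PROTAC control; DC50 and Dmax came from Hill/bell curve fits.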

Assay [2] addresses T2, AR (L702H) in LNCaP cells (Homo sapiens, UniProt P10275, L702H/T878A).
T2 construct: engineered to introduce the mutation L702H into the AR gene using CRISPR/Cas9; endogenous in cells; host or cells: LNCaP cells edited by CRISPR/Cas9 at the AR gene
Kind of assay: LNCaP Androgen Receptor L702H Imaging Assay (LNCaP cells engineered by CRISPR/Cas9). The note with it: LNCaP cells with AR L702H mutation, 24 h incubation; for DC50: concentration giving 50% of maximum degradation of AR (L702H) per curve fit; for Dmax: LNCaP, maximum degradation observed, normalized as % of positive control. It counts as cell-based. The method in brief:
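CRISPR-engineered LNCaP cells carrying AR L702H were treated 24 h at 37 °C with a 12-point compound dose response (0.3% DMSO), then fixed and immunostained for AR with DRAQ5 nuclear counterstain. Nuclear AR was quantified by imaging, normalized to positive control; DC50 and Dmax came from Hill or bell-shaped fits.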

T1 sequence (P10275 whole entry T878A): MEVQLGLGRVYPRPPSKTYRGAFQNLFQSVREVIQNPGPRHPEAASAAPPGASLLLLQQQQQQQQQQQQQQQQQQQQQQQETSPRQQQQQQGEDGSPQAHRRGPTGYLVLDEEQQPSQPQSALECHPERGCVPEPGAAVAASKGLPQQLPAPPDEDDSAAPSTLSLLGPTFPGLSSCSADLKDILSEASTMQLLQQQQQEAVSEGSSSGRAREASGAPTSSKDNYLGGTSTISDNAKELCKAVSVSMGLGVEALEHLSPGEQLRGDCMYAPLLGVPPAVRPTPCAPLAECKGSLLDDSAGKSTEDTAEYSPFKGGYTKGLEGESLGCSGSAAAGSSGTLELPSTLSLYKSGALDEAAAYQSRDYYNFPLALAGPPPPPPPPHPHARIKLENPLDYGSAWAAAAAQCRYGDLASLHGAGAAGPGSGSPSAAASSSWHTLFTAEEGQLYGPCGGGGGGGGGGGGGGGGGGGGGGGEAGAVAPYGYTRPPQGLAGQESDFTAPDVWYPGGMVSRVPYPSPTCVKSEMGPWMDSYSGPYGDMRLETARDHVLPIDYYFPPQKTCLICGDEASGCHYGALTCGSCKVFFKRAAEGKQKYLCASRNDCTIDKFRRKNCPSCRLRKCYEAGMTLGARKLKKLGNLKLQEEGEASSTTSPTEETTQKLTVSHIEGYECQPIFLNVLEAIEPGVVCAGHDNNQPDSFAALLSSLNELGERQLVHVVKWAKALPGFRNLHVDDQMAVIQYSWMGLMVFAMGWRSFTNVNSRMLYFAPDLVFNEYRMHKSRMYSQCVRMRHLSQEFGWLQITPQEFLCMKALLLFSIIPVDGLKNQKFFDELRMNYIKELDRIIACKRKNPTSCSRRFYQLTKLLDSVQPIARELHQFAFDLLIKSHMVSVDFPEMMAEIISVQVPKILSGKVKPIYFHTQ
T1 sequence (Q96SW2 whole entry partner): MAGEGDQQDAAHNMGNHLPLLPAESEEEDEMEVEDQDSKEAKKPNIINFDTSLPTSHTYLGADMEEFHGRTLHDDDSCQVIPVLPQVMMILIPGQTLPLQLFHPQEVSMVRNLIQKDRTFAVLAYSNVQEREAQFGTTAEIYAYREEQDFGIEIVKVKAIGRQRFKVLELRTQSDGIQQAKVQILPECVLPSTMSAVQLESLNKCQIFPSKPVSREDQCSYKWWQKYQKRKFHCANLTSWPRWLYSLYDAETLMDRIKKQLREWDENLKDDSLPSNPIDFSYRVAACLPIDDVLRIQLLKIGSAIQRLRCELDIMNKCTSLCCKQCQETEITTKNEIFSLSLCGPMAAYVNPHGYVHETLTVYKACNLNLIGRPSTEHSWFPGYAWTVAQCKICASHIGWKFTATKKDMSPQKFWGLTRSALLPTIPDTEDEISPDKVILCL
T2 sequence (P10275 whole entry L702H/T878A): as the sequence (P10275 whole entry T878A) above, with L702H counted along it
T2 sequence (Q96SW2 whole entry partner): as the sequence (Q96SW2 whole entry partner) above

As a reminder, the DC50 is the concentration at which degradation of the target reaches its halfway point. High values mean degradation only at high concentration, low ones degradation at low concentration. A word on the Dmax: it is the greatest extent of degradation seen. Take `Cc1cc(N2CCC(CN3CCC(n4ccc5c(N6CCC(=O)NC6=O)cccc54)CC3)CC2)ccc1C(=O)NC1CCN(c2ccc(Cl)c3c(C#N)c[nH]c23)CC1` [Example 178, N-[1-(4-Chloro-3-cyano-1H-indol-7-yl)piperidin-4-yl]-4-[4-({4-[4-(2,4-dioxo-1,3-diazinan-1-yl)-1H-indol-1-yl]piperidin-1-yl}methyl)piperidin-1-yl]-2-methylbenzamide]: in assay [1], the DC50 came out at 2 nM and the Dmax was 106%. For the same compound, in assay [2], half-maximal degradation (DC50) was put at 2 nM and the Dmax is 107%.

As for `N#Cc1c[nH]c2c(N3CCC(NC(=O)c4ccc(N5CCC(CN6CCC(n7ccc8c(N9CCC(=O)NC9=O)cccc87)CC6)CC5)nn4)CC3)ccc(Cl)c12` [Example 179, N-[1-(4-Chloro-3-cyano-1H-indol-7-yl)piperidin-4-yl]-6-[4-({4-[4-(2,4-dioxo-1,3-diazinan-1-yl)-1H-indol-1-yl]piperidin-1-yl}methyl)piperidin-1-yl]pyridazine-3-carboxamide], in assay [1], it took 1 nM to reach half-maximal degradation (DC50) and the Dmax was 103%. In assay [2], half-maximal degradation (DC50) was put at 1 nM and the Dmax was determined as 108%.
